Columns and labels:
[1] = test system: organotypic hippocampal cultures; design: method as in PMID 37775304, PMID 37947648; conditions: nanomolar doses; ref [24],[25]; cited from earlier work
[2] = Cell-free MTT-based H2S release assay; assay type: physicochemical; conditions: 24 h incubation in MEM with 10% DMSO
Procedure: Solutions at different concentrations of each compound in 100 µL of serum-free MEM/10% DMSO with 0.5 mg/mL 3-(4,5-dimethylthiazol-2yl)-2,5-diphenyltetrazolium bromide (MTT) were incubated for 5 h or 24 h in a humidified incubator at 37 °C in 5% CO2 atmosphere. The experimental design comprised blank wells containing only medium and MTT, and a H2S calibration curve obtained by incubating nine solutions at decreasing concentrations (100 µM to 0.01 µM) of NaHS in medium and MTT. At the end of incubation time, the supernatant was removed, the […] crystals were dissolved in 100 µL DMSO/EtOH (1:1 v/v), and absorbance values were read using a Victor 3 plate reader (PerkinElmer, Shelton, CT, USA) at 570 nm. H2S values are expressed as mean ± S.E.M. of the results of three independent experiments conducted in triplicate, and were plotted using GraphPad Prism 7.
To decipher such results and considering the redox properties of H2S, we questioned if H2S released by our compounds in the culture media could interfere with the conversion of MTT (3-[4,5-dimethylthiazol-2-yl]-2,5-diphenyl tetrazolium bromide) to formazan, which is usually related to cell viability. Thus, we ran cell-free experiments in which MTT was used as the substrate to capture the reductive action of H2S. We found, in agreement with Gerő et al., that some of our thioureas and thioamides reduced MTT to formazan after 24 h incubation in MEM with 10% DMSO.

[3] = test system: HepG2 hepatocarcinoma cells; experiment: MTT cell viability assay, MTT added directly to treated media; assay type: cell-based, human; conditions: 5% DMSO
Procedure: The cytotoxicity of our compounds was assessed using the well-established MTT assay. HepG2 hepatocarcinoma cells were cultured in Minimum Essential Medium (MEM) (Euroclone, Pero, Italy), supplemented with 10% fetal bovine serum (Euroclone, Pero, Italy), 100 U/mL penicillin, and 100 µg/mL streptomycin sulfate, at 37 °C in a humidified incubator in 5% CO2 atmosphere. For the MTT assays, these cells were cultured up to about 90% confluence and were then seeded at a concentration of 20,000 cells per well in 96-well plates. After 24 h, the culture medium was replaced with solutions at various concentrations of each compound in MEM/DMSO 5% (v/v). Control wells were incorporated in the experimental design, consisting of vehicle (MEM/DMSO 5%) and pure medium controls.
In the first round of cytotoxicity assays, 0.5 mg/mL MTT was added to each well 2 or 24 h from treatment and left to incubate for 3–5 h. In the second round of cytotoxicity assays, at 2 or 24 h after treatment, treated media were removed, the cells were washed once in PBS, and fresh medium containing 0.5 mg/mL MTT was added to each well and left to incubate for 3–5 h.
Subsequently, the supernatant was removed, and the formazan crystals were dissolved in DMSO/EtOH 1:1 (100 µL/well). Absorbance values were then recorded from each well using a Victor 3 plate reader (PerkinElmer, Shelton, CT, USA) at 570 nm. All presented data were obtained from 3 to 5 experiments performed in triplicate. Cell viability values are expressed as mean ± S.E.M. and were plotted using GraphPad Prism 7.
Next, we assessed H2S release in a biological environment using human hepatocarcinoma HepG2 cells as a model. The intracellular release of H2S was detected with the WSP-1 probe, a turn-on fluorescent probe that selectively and irreversibly reacts with H2S. Considering that a high micromolar concentration of the test compounds is required to obtain a robust fluorescent signal, we first evaluated the compounds’ cytotoxicity after 2 h and 24 h of incubation with the MTT assay in HepG2 cells. […] We accounted for this by adding a vehicle control with 5% DMSO and a control without DMSO to our experimental design.

FPR2 [4] = biological target: T1, FPR2 (Homo sapiens, UniProt P25090); experiment: Ca2+ mobilization (agonist activity) in FPR2-HL60 cells; conditions: for fold less potent at FPR2 than the corresponding urea/amide: ratio of FPR2 EC50 vs 3b, 3c or 4b; for Ca2+ Mobilization HL60-FPR2 Efficacy: response to 5 nM WKYMVM = 100%
T1 sequence (P25090 1-351): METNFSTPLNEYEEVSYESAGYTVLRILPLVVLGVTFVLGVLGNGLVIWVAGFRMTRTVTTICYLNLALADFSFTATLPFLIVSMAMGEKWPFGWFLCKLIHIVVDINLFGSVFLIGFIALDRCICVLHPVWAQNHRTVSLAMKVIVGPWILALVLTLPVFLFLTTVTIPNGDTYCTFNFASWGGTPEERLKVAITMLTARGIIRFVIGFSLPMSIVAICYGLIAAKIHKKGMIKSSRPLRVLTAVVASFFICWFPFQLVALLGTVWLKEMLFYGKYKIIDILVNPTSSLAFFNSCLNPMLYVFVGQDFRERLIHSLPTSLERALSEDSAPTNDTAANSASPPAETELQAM

HepG2 cells = experiment: Intracellular H2S release with WSP-1 probe; assay type: cell-based, human
Procedure: All cell culture reagents were purchased from S.I.A.L. S.r.l. (Rome, Italy). WSP-1 (Washington State Probe-1, 3′-methoxy-3-oxo-3H-spiro[isobenzofuran-1,9′-xanthen]-6′-yl 2-(pyridine-2-yl-disulfanyl benzoate), was obtained from Cayman Chemical (Cayman, Ann Arbor, MI, USA). HepG2, human hepatocellular carcinoma cells, was obtained from American Type Culture Collection (ATCC, Bethesda, MD, USA). Human hepatocellular carcinoma cells (HepG2) were cultured in Minimum Essential Eagle’s Medium. This medium was supplemented with 10% (v/v) Fetal Bovine Serum, 1% (v/v) Glutamine and 1% (v/v) Penicillin-Streptomycin, 1% non-essential amino acids. Cells were cultivated at 37 °C with 5% CO2 at saturated humidity.
These experiments were carried out as already described. HepG2 cells were cultured up to about 90% confluence, and 24 h before the experiment cells were seeded into a 96-well flat bottom black plate (50,000 cells per well). After 24 h, the medium was replaced and cells were incubated at 37 °C for 30 min with a 10 mM solution of the fluorescent WSP-1 probe, which is highly sensitive for H2S detection. After incubation, the supernatant was removed and replaced with different concentrations (100, 200, and 300 µM) of the tested compounds dissolved in HBSS buffer. […] ADT 100 µM was used as a slow H2S-donor reference compound. Data were analyzed by one-way ANOVA for repeated measures, followed by post hoc Bonferroni’s multiple comparison test. Results are expressed as mean ± SEM of 3 independent experiments in triplicate. Statistical significance was accepted at a level of p < 0.05.
Next, we assessed the intracellular H2S release of thioureas and thioamides in HepG2 cells. The compounds were tested at different concentrations (100–300 μM) to evaluate if the release was dose-dependent. We also assayed ADT-OH and TIA as reference H2S-donors, and 3a as a negative control. The results were normalized to the fluorescence signal obtained with 100 μM ADT-OH.

FPR2 [5] = biological target: T1, FPR2; experiment: FPR2 desensitization: inhibition of WKYMVM-induced Ca2+ mobilization in FPR2-HL60 cells; assay type: cell-based; design: expressed in transfected cells; host or cells: HL-60 cells; conditions: 10 min preincubation, then 5 nM WKYMVM
Excerpt: Finally, we assessed the ability of compounds to induce receptor desensitization at FPR2 by measuring the inhibition of Ca^2+ mobilization induced by subsequent treatment with a standard FPR2 agonist (IC50, Table 1) because FPR2 undergoes homologous desensitization after stimulation with agonists, resulting in functional antagonism (IC50, Table 1). […] We also evaluated the effects of the thiourea and thioamide derivatives on Ca^2+ mobilization in FPR1-HL60-transfected cells after stimulation with the FPR1 agonist (IC50, Table 1).

FPR2 [6] = biological target: T1, FPR2; experiment: cell-based
[7] = HepG2, tested concentrations 100-300 μM, 60 min

| Structure (SMILES) | absorbance signal (MTT reduction to formazan) indicative of H2S release [2] | MTT absorbance signal vs control ([3]; HepG2, 2 h incubation) | intracellular H2S release, WSP-1 fluorescence signal vs vehicle (HepG2 cells; [7]) | fold less potent at FPR2 than the corresponding urea/amide (FPR2 [4]) | Ca2+ Mobilization HL60-FPR2 Efficacy (FPR2 [4]) [%] | Ca2+ Mobilization HL60-FPR2 IC50 (FPR2 desensitization) (FPR2 [5]) | EC50 (FPR2 [6]) [nM] | intracellular H2S release, WSP-1 fluorescence signal vs vehicle (HepG2 cells; HepG2, at 200 and 300 μM) | other results |
| --- | --- | --- | --- | --- | --- | --- | --- | --- | --- |
| N#Cc1ccc(C[C@H](NC(=O)Nc2ccc(F)cc2)C(=O)N2CCc3ccccc32)cc1 [3b, (S)-1-[3-(4-cyanophenyl)-1-(indolin-1-yl)-1-oxopropan-2-yl]-3-(4-fluorophenyl)urea] | – | – | – | – | – | – | – | – | protective and anti-inflammatory properties [1]: beneficial protective and anti-inflammatory properties at nanomolar doses |
| N#Cc1ccc(C[C@H](NC(=O)Nc2ccc(F)cc2)C(=O)N2CCc3ccc(F)cc32)cc1 [3c, (S)-1-[3-(4-cyanophenyl)-1-(6-fluoroindolin-1-yl)-1-oxopropan-2-yl]-3-(4-fluorophenyl)urea] | – | – | – | – | – | – | – | – | protective and anti-inflammatory properties [1]: beneficial protective and anti-inflammatory properties at nanomolar doses |
| N#Cc1ccc(C[C@H](NC(=S)Nc2ccc(F)cc2)C(=O)NCC2(c3ccc(F)c(Cl)c3)CC2)cc1 [5a, (S)-N-[[1-(3-Chloro-4-fluorophenyl)cyclopropyl]methyl]-3-(4-cyanophenyl)-2-[3-(4-fluorophenyl)thioureido]propanamide] | did not give off any detectable absorbance signal | pronounced signal | comparable to vehicle | – | – | – | – | – | MTT absorbance signal vs control ([3]; HepG2, 24 h incubation): higher than the control; Ca2+ Mobilization HL60-FPR2 EC50 (FPR2 [4]; HL-60 cells transfected with human FPR2): inactive |
| N#Cc1ccc(C[C@H](NC(=S)Nc2ccc(F)cc2)C(=O)N2CCc3ccccc32)cc1 [5b, (S)-1-[3-(4-Cyanophenyl)-1-(indolin-1-yl)-1-oxopropan-2-yl]-3-(4-fluorophenyl)thiourea] | significant absorbance signal with slight dose-dependent effects | – | – | more than 10 fold | 65 | inactive | 2200 ± 700 | – | – |
| N#Cc1ccc(C[C@H](NC(=S)Nc2ccc(F)cc2)C(=O)N2CCc3ccc(F)cc32)cc1 [5c] | significant absorbance signal with slight dose-dependent effects | pronounced signal | – | more than 10 fold | 105 | inactive | 12000 ± 32000 | statistically significant increase in the fluorescent signal | – |
| N#Cc1ccc(C[C@H](NC(=S)Nc2ccc(Br)cc2)C(=O)N2CCc3ccccc32)cc1 [6b, (S)-1-(4-Bromophenyl)-3-[3-(4-cyanophenyl)-1-(indolin-1-yl)-1-oxopropan-2-yl]thiourea] | – | pronounced signal | – | more than 10 fold | 65 | – | 1700 ± 700 | statistically significant increase in the fluorescent signal | MTT absorbance signal vs control ([3]; HepG2, 24 h incubation): higher than the control; IC50 (FPR2 [5]): 2200 ± 400 nM |
| N#Cc1ccc(C[C@H](NC(=O)Nc2ccc(F)cc2)C(=S)NCC2(c3ccc(F)c(Cl)c3)CC2)cc1 [7a, (S)-N-[[1-(3-Chloro-4-fluorophenyl)cyclopropyl]methyl]-3-(4-cyanophenyl)-2-[3-(4-fluorophenyl)ureido]propanethioamide] | below the assay’s detection limit | – | significant fluorescence signal increase at all tested concentrations | – | 145 | submicromolar concentration | 2300 ± 800 | – | IC50 (FPR2 [5]): 300 ± 100 nM; intracellular level of H2S vs reference H2S donor ADT (HepG2 cells; HepG2, at 200 and 300 μM, p < 0.001 vs. ADT): more than the reference H2S donor ADT; levels of H2S release in HepG2 cells (HepG2 cells; summary of WSP-1 results): very high levels of H2S release |
| O=c1cc(-c2cccc(O)c2)ss1 [ADT-OH, 5-(5-hydroxyphenyl)-3H-1,2-dithiol-3-one, reference compound] | – | – | statistically significant increase in fluorescence | – | – | – | – | – | – |
| [Na+].[SH-] [NaHS, sodium hydrogen sulfide, reference compound] | strong dose-dependent signal | – | – | – | – | – | – | – | – |
| NC(=O)c1ccc(O)cc1 [TIA, 4-hydroxybenzamide, reference compound] | – | – | – | – | – | – | – | statistically significant increase in fluorescence | – |
